This is an account of results in patent US20260159511A1, “SMALL MOLECULE STING ANTAGONISTS” (CURADEV PHARMA PVT. LTD., priority 2021, published 2026).

In the test the test system is IRF pathway in THP1-Dual™ cells, THP-1 (HAQ). Put plainly: Reporter gene expression assay in THP-1 cells (THP1-Dual, IRF pathway Lucia luciferase reporter, 2′,3′-cGAMP stimulation). The settings on record: Homo sapiens; THP1-Dual cells preincubated with compound 10 minutes, stimulation with 5 μM 2′,3′-cGAMP for 20 hr, QUANTI-Luc readout of the supernatant; read-out: THP-1 (HAQ) Activity (IC50 value range). In kind it is cell-based, human. The protocol: Reporter Gene Expression Assay in THP-1 Cells
THP1-Dual™ cells (Invivogen) were derived from the human THP-1 monocyte cell line by stable integration of two inducible reporter constructs. As a result, THP1-Dual™ cells allow the simultaneous study of the IRF pathway, by assessing the activity of a secreted luciferase (Lucia) and the NF-κB pathway, by monitoring the activity of secreted SEAP. 5×10^4 THP1-Dual™ cells were seeded in 384-well plates in growth medium and preincubated with novel compounds for 10 minutes followed by stimulation with 5 μM 2′,3′-cGAMP. After 20 hr of stimulation the supernatant was removed and the IRF pathway reporter protein was readily measured in the cell culture supernatant using QUANTI-Luc™ (Invivogen), a luciferase detection reagent on a Spectramax i3X luminometer.
(In general: In a reporter assay the amount or activity of a reporter protein is the signal.)

SMILES strings stand for the structures.

For the compound `N#CCCn1cc(-c2ccc3[nH]cc(NC(=O)Nc4ccc5c(c4)N(Cc4ccccc4)C(=O)CS5)c3c2)cn1` [Example 52, 1-(4-benzyl-3-oxo-3,4-dihydro-2H-benzo[b][1,4]thiazin-6-yl)-3-(5-(1-(2-cyanoethyl)-1H-pyrazol-4-yl)-1H-indol-3-yl)urea], the IC50 lay in the range of 1 to 10 µM. The value for `O=C(Nc1ccc2c(c1)N(Cc1ccccc1)C(=O)CS2)Nc1c[nH]c2ncc(Br)cc12` [Example 6, 1-(4-benzyl-3-oxo-3,4-dihydro-2H-benzo[b][1,4]thiazin-6-yl)-3-(5-bromo-1H-pyrrolo[2,3-b]pyridin-3-yl)urea] was < 1 µM.

For `O=C(Nc1ccc2c(c1)N(Cc1cc(F)cc(F)c1)C(=O)CS2)Nc1c[nH]c2ccccc12` [Example 18, 1-(4-(3,5-difluorobenzyl)-3-oxo-3,4-dihydro-2H-benzo[b][1,4]thiazin-6-yl)-3-(1H-indol-3-yl)urea], the IC50 is < 1 µM. The same measure for `Cc1ncc(-c2ccc3[nH]cc(NC(=O)Nc4ccc5c(c4)N(Cc4ccccc4)C(=O)CS5)c3c2)o1` [Example 41, 1-(4-benzyl-3-oxo-3,4-dihydro-2H-benzo[b][1,4]thiazin-6-yl)-3-(5-(2-methyloxazol-5-yl)-1H-indol-3-yl)urea]: 1 to 10 µM; for `CN1CCSc2ccc(NC(=O)Nc3c[nH]c4ccccc34)cc21` [Example 78, 1-(1H-indol-3-yl)-3-(4-methyl-3,4-dihydro-2H-benzo[b][1,4]thiazin-6-yl)urea]: < 1 µM. The same measure for `O=C(Nc1ccc2c(c1)N(Cc1ccccc1)C(=O)CS2)Nc1c[nH]c2ccc(-c3cncc(CO)c3)cc12` [Example 61, 1-(4-benzyl-3-oxo-3,4-dihydro-2H-benzo[b][1,4]thiazin-6-yl)-3-(5-(5-(hydroxymethyl)pyridin-3-yl)-1H-indol-3-yl)urea]: 1 to 10 µM; for `CS(=O)(=O)c1cccc(-c2ccc3[nH]cc(NC(=O)Nc4ccc5c(c4)N(Cc4ccccc4)C(=O)CS5)c3c2)c1` [Example 54, 1-(4-benzyl-3-oxo-3,4-dihydro-2H-benzo[b][1,4]thiazin-6-yl)-3-(5-(3-(methylsulfonyl)phenyl)-1H-indol-3-yl)urea]: 1 to 10 µM; for `O=C(Nc1ccc2c(c1)SCCN2c1ccccc1)Nc1c[nH]c2ccccc12` [Example 104, 1-(1H-indol-3-yl)-3-(4-phenyl-3,4-dihydro-2H-benzo[b][1,4]thiazin-7-yl)urea]: < 1 µM. The value for `O=C(Nc1ccc2c(c1)N(Cc1ccccc1)C(=O)CS2)Nc1c[nH]c2ccc(-c3cncnc3)cc12` [Example 56, 1-(4-benzyl-3-oxo-3,4-dihydro-2H-benzo[b][1,4]thiazin-6-yl)-3-(5-(pyrimidin-5-yl)-1H-indol-3-yl)urea] was < 1 µM; that for `O=C(Nc1ccc2c(c1)N(Cc1c(F)cccc1Cl)CCO2)Nc1c[nH]c2ccccc12` [Example 74, 1-(4-(2-chloro-6-fluorobenzyl)-3,4-dihydro-2H-benzo[b][1,4]oxazin-6-yl)-3-(1H-indol-3-yl)urea] was < 1 µM. Take `O=C(Nc1ccc2c(c1)N(Cc1c(F)cccc1Cl)C(=O)CS2)Nc1c[nH]c2ccc(Cl)cc12` [Example 28, 1-(5-chloro-1H-indol-3-yl)-3-(4-(2-chloro-6-fluorobenzyl)-3-oxo-3,4-dihydro-2H-benzo[b][1,4]thiazin-6-yl)urea]: the IC50 is 1 to 10 µM. Take `Cc1cc(CN2CCSc3ccc(NC(=O)Nc4c[nH]c5ccc(F)cc45)cc32)on1` [Example 110, 1-(5-fluoro-1H-indol-3-yl)-3-(4-((3-methylisoxazol-5-yl)methyl)-3,4-dihydro-2H-benzo[b][1,4]thiazin-6-yl)urea]: the IC50 was < 1 µM. On to `O=C(Nc1ccc2c(c1)SCCN2Cc1c(F)cccc1Cl)Nc1c[nH]c2ccccc12` [Example 77, 1-(4-(2-chloro-6-fluorobenzyl)-3,4-dihydro-2H-benzo[b][1,4]thiazin-7-yl)-3-(1H-indol-3-yl)urea], for which the IC50 was < 1 µM. Regarding `O=C(Nc1ccc2c(c1)N(Cc1c(F)cccc1Cl)C(=O)CS2)Nc1c[nH]c2ccccc12` [Example 11, 1-(4-(2-chloro-6-fluorobenzyl)-3-oxo-3,4-dihydro-2H-benzo[b][1,4]thiazin-6-yl)-3-(1H-indol-3-yl)urea], the IC50 was < 1 µM. The value for `O=C(Nc1ccc2c(c1)N(Cc1ccccc1)C(=O)CS2)Nc1c[nH]c2ccc(-c3cccc(CO)c3)cc12` [Example 43, 1-(4-benzyl-3-oxo-3,4-dihydro-2H-benzo[b][1,4]thiazin-6-yl)-3-(5-(3-(hydroxymethyl)phenyl)-1H-indol-3-yl)urea] was < 1 µM; that for `C[C@H]1c2ccc(NC(=O)Nc3c[nH]c4ccccc34)cc2N(Cc2ccccc2)C(=O)N1C` [Example 107, (S)-1-(1-Benzyl-3,4-dimethyl-2-oxo-1,2,3,4-tetrahydroquinazolin-7-yl)-3-(1H-indol-3-yl)urea] was < 1 µM; that for `O=C(Nc1ccc2c(c1)N(Cc1cc(F)cc(F)c1)CCS2)Nc1c[nH]c2ccccc12` [Example 92, 1-(4-(3,5-difluorobenzyl)-3,4-dihydro-2H-benzo[b][1,4]thiazin-6-yl)-3-(1H-indol-3-yl)urea] was < 1 µM. As to `Cc1cc(CN2CCSc3cc(NC(=O)Nc4c[nH]c5ccccc45)ccc32)no1` [Example 96, 1-(1H-indol-3-yl)-3-(4-((5-methylisoxazol-3-yl)methyl)-3,4-dihydro-2H-benzo[b][1,4]thiazin-7-yl)urea], the 50% inhibitory concentration (IC50) is < 1 µM.

For the compound `CC1CN(Cc2cc(F)cc(F)c2)c2cc(NC(=O)Nc3c[nH]c4ccc(F)cc34)ccc2S1` (stereo not shown) [Example 69, 1-(4-(3,5-Difluorobenzyl)-2-methyl-3,4-dihydro-2H-benzo[b][1,4]thiazin-6-yl)-3-(5-fluoro-1H-indol-3-yl)urea], the concentration for half-maximal inhibition (IC50) was < 1 µM. On to `O=C(Nc1ccc2c(c1)N(Cc1ccccc1)C(=O)CS2)Nc1c[nH]c2ccc(-c3cnco3)cc12` [Example 39, 1-(4-benzyl-3-oxo-3,4-dihydro-2H-benzo[b][1,4]thiazin-6-yl)-3-(5-(oxazol-5-yl)-1H-indol-3-yl)urea], for which the half-inhibitory concentration (IC50) is < 1 µM.

As for `O=C(Nc1ccc2c(c1)SCCN2Cc1ccccc1)Nc1c[nH]c2ccccc12` [Example 73, 1-(4-benzyl-3,4-dihydro-2H-benzo[b][1,4]thiazin-7-yl)-3-(1H-indol-3-yl)urea], the 50% inhibitory concentration (IC50) was < 1 µM. The value for `O=C(Nc1ccc2c(c1)N(Cc1ccccc1)C(=O)CS2)Nc1c[nH]c2ccc(-c3cccnc3)cc12` [Example 55, 1-(4-benzyl-3-oxo-3,4-dihydro-2H-benzo[b][1,4]thiazin-6-yl)-3-(5-(pyridin-3-yl)-1H-indol-3-yl)urea] was < 1 µM. The value for `O=C(Nc1ccc2c(c1)OCC(=O)N2Cc1c(F)cccc1Cl)Nc1c[nH]c2ccccc12` [Example 2, 1-(4-(2-Chloro-6-fluorobenzyl)-3-oxo-3,4-dihydro-2H-benzo[b][1,4]oxazin-7-yl)-3-(1H-indol-3-yl)urea] was < 1 µM. The same measure for `NC(=O)c1cccc(-c2ccc3[nH]cc(NC(=O)Nc4ccc5c(c4)N(Cc4ccccc4)C(=O)CS5)c3c2)c1` [Example 48, 3-(3-(3-(4-benzyl-3-oxo-3,4-dihydro-2H-benzo[b][1,4]thiazin-6-yl)ureido)-1H-indol-5-yl)benzamide]: 1 to 10 µM; for `O=C(Nc1ccc2c(c1)OCC(=O)N2Cc1ccccc1)Nc1c[nH]c2ccccc12` [Example 3, 1-(4-benzyl-3-oxo-3,4-dihydro-2H-benzo[b][1,4]oxazin-7-yl)-3-(1H-indol-3-yl)urea]: < 1 µM.

The IC50 is the concentration at which inhibition is half-maximal.
